Test system: Endogenous Huntingtin Protein
Assay: Endogenous Huntingtin Protein Assay (ELISA-based MSD electrochemiluminescence)
Assay type: cell-based
Conditions: Table 1
How it was run: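 Sandwich MSD electrochemiluminescence immunoassay. Capture used MW1 (expanded polyglutamine) or MAB2166 antibody coated at 1 μg/mL overnight at 4 °C. Samples were bound overnight at 4 °C, then a rabbit monoclonal detection antibody and SULFO-TAG anti-rabbit, each at 0.25 μg/mL, were applied for 1 h at room temperature.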

IC50 | SMILES
≤ 100 nM | Oc1cc(-c2cn[nH]c2)ccc1-c1cc2sc(N3C[C@H]4CCNC[C@H]43)nc2nn1 [Compound 386, 2-{6-[(1S,6R)-3,8-diazabicyclo[4.2.0]octan-8-yl][1,3]thiazolo[4,5-c]pyridazin-3-yl}-5-(1H-pyrazol-4-yl)phenol]
≤ 100 nM | CN(c1nc2nnc(-c3ccc(-c4c[nH]nc4F)cc3O)cc2s1)C1CCNC1 (stereo not drawn) [Compound 387, 5-(3-fluoro-1H-pyrazol-4-yl)-2-[6-[methyl(pyrrolidin-3-yl)amino][1,3]thiazolo[4,5-c]pyridazin-3-yl}phenol]
100 to 500 nM | CN1CC[C@@H]2CN(c3nc4nnc(-c5ccc(-c6cn[nH]c6)cc5O)cc4s3)[C@@H]2C1 [Compound 388, 2-{6-[(1S,6R)-3-methyl-3,8-diazabicyclo[4.2.0]octan-8-yl][1,3]thiazolo[4,5-c]pyridazin-3-yl}-5-(1H-pyrazol-4-yl)phenol]
≤ 100 nM | Oc1cc(-c2cn[nH]c2)ccc1-c1cc2sc(N3C[C@@H]4CCNC[C@@H]43)nc2nn1 [Compound 389, 2-{6-[(1R,6S)-3,8-diazabicyclo[4.2.0]octan-8-yl][1,3]thiazolo[4,5-c]pyridazin-3-yl}-5-(1H-pyrazol-4-yl)phenol]
≤ 100 nM | CN1CC[C@H]2CN(c3nc4nnc(-c5ccc(-c6cn[nH]c6)cc5O)cc4s3)[C@H]2C1 [Compound 390, 2-{6-[(1R,6S)-3-methyl-3,8-diazabicyclo[4.2.0]octan-8-yl][1,3]thiazolo[4,5-c]pyridazin-3-yl}-5-(1H-pyrazol-4-yl)phenol]
≤ 100 nM | CN1CCC(N(C)c2nc3nnc(-c4ccc(-c5c[nH]nc5F)cc4O)cc3s2)C1 (stereo not drawn) [Compound 391, 5-(3-fluoro-1H-pyrazol-4-yl)-2-{6-[methyl(1-methylpyrrolidin-3-yl)amino][1,3]thiazolo[4,5-c]pyridazin-3-yl]phenol]
1000 to 3000 nM | CN1CCC2(CC1)CN(c1nc3nnc(-c4ccc(-c5c[nH]nc5F)cc4O)cc3s1)C2 [Compound 392, 5-(3-fluoro-1H-pyrazol-4-yl)-2-[6-(7-methyl-2,7-diazaspiro[3.5]nonan-2-yl)[1,3]thiazolo[4,5-c]pyridazin-3-yl]phenol]
≤ 100 nM | CN(c1nc2nnc(-c3ccc(-c4c[nH]nc4F)cc3O)cc2s1)C1CCCNCC1 (stereo not drawn) [Compound 398, 2-{6-[(azepan-4-yl)(methyl)amino][1,3]thiazolo[4,5-c]pyridazin-3-yl)-5-(3-fluoro-1H-pyrazol-4-yl)phenol]

Continued, compound first:

SMILES | IC50
Cc1cn2cc(-c3cc4sc(N(C)C5CCN(C)C(C)C5)nc4cn3)cc(C#N)c2n1 (stereo not drawn) [Compound 379, 6-{2-[(1,2-dimethylpiperidin-4-yl)(methyl)amino][1,3]thiazolo[4,5-c]pyridin-6-yl}-2-methylimidazo[1,2-a]pyridine-8-carbonitrile] | ≤ 100 nM
Cc1cn2cc(-c3cc4sc(N(C)C5CCN(C)C(C)C5)nc4cn3)cc(F)c2n1 (stereo not drawn) [Compound 380, N-(1,2-dimethylpiperidin-4-yl)-6-(8-fluoro-2-methylimidazo[1,2-a]pyridin-6-yl)-N-methyl[1,3]thiazolo[4,5-c]pyridin-2-amine] | 100 to 500 nM
CN(c1nc2nnc(-c3ccc(-c4cn[nH]c4)cc3O)cc2s1)[C@H]1CNC[C@@H]1F [Compound 381, 2-(6-{[(3S,4S)-4-fluoropyrrolidin-3-yl](methyl)amino}[1,3]thiazolo[4,5-c]pyridazin-3-yl)-5-(1H-pyrazol-4-yl)phenol] | 100 to 500 nM
CN1C[C@H](F)[C@@H](N(C)c2nc3nnc(-c4ccc(-c5cn[nH]c5)cc4O)cc3s2)C1 [Compound 382, 2-(6-{[(3S,4S)-4-fluoro-1-methylpyrrolidin-3-yl](methyl)amino}[1,3]thiazolo[4,5-c]pyridazin-3-yl)-5-(1H-pyrazol-4-yl)phenol] | 100 to 500 nM
CN(c1nc2nnc(-c3ccc(-c4cn[nH]c4)cc3O)cc2s1)C1CCN(C2CC2)CC1 [Compound 383, 2-{6-[(1-cyclopropylpiperidin-4-yl)(methyl)amino][1,3]thiazolo[4,5-c]pyridazin-3-yl}-5-(1H-pyrazol-4-yl)phenol] | ≤ 100 nM
CN(c1nc2nnc(-c3ccc(-c4cn[nH]c4)cc3O)cc2s1)C1CCN(CCF)CC1 [Compound 384, 2-(6-{[1-(2-fluoroethyl)piperidin-4-yl](methyl)amino}[1,3]thiazolo[4,5-c]pyridazin-3-yl)-5-(1H-pyrazol-4-yl)phenol] | ≤ 100 nM
CN1CC2(C1)CN(c1nc3nnc(-c4ccc(-c5c[nH]nc5F)cc4O)cc3s1)C2 [Compound 385, 5-(3-fluoro-1H-pyrazol-4-yl)-2-[6-(6-methyl-2,6-diazaspiro[3.3]heptan-2-yl)[1,3]thiazolo[4,5-c]pyridazin-3-yl]phenol] | ≤ 100 nM
CCCN1CCC(N(C)c2nc3nnc(-c4ccc(-c5cn[nH]c5)cc4O)cc3s2)CC1 [Compound 393, 2-{6-[methyl(1-propylpiperidin-4-yl)amino][1,3]thiazolo[4,5-c]pyridazin-3-yl]-5-(1H-pyrazol-4-yl)phenol] | 1000 to 3000 nM
C[C@H]1C[C@@H](N(C)c2nc3nnc(-c4ccc(-c5cn[nH]c5)cc4O)cc3s2)CCN1 [Compound 394, 2-(6-{methyl[(2S,4S)-2-methylpiperidin-4-yl]amino}[1,3]thiazolo[4,5-c]pyridazin-3-yl)-5-(1H-pyrazol-4-yl)phenol] | ≤ 100 nM
C[C@H]1C[C@@H](N(C)c2nc3nnc(-c4ccc(-c5cn[nH]c5)cc4O)cc3s2)CCN1C [Compound 395, 2-(6-{[(2S,4S)-1,2-dimethylpiperidin-4-yl](methyl)amino}[1,3]thiazolo[4,5-c]pyridazin-3-yl)-5-(1H-pyrazol-4-yl)phenol] | ≤ 100 nM
C[C@@H]1C[C@@H](N(C)c2nc3nnc(-c4ccc(-c5cn[nH]c5)cc4O)cc3s2)CCN1 [Compound 396, 2-(6-{methyl[(2R,4S)-2-methylpiperidin-4-yl]amino][1,3]thiazolo[4,5-c]pyridazin-3-yl)-5-(1H-pyrazol-4-yl)phenol] | ≤ 100 nM
C[C@@H]1C[C@@H](N(C)c2nc3nnc(-c4ccc(-c5cn[nH]c5)cc4O)cc3s2)CCN1C [Compound 397, 2-(6-{[(2R,4S)-1,2-dimethylpiperidin-4-yl](methyl)amino}[1,3]thiazolo[4,5-c]pyridazin-3-yl)-5-(1H-pyrazol-4-yl)phenol] | ≤ 100 nM
CN(c1nc2nnc(-c3ccc(-c4cn[nH]c4)cc3O)cc2s1)C1CCN(CCO)CC1 [Compound 399, 2-(6-{[1-(2-hydroxyethyl)piperidin-4-yl](methyl)amino}[1,3]thiazolo[4,5-c]pyridazin-3-yl)-5-(1H-pyrazol-4-yl)phenol] | ≤ 100 nM
